Assay results published in PubChem BioAssay (NCI).
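48-hour exposure; five concentrations; linearly interpolated endpoints. At the TGI there is no net growth.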

Tests used:
Test in all cases: growth of human tumour cells (NCI), 48 h
[1] = system: 786-0 renal
[2] = system: A498 renal
[3] = system: A549 NSCLC
[4] = system: ACHN renal
[5] = system: BT-549 breast
[6] = system: CAKI-1 renal
[7] = system: CCRF-CEM leukemia
[8] = system: COLO 205 colon
[9] = system: DU-145 prostate
[10] = system: EKVX NSCLC
[11] = system: HCC-2998 colon
[12] = system: HCT-116 colon
[13] = system: HCT-15 colon
[14] = system: HL-60(TB) leukemia
[15] = system: HOP-62 NSCLC
[16] = system: HOP-92 NSCLC
[17] = system: HS 578T breast
[18] = system: HT29 colon
[19] = system: IGROV1 ovarian
[20] = system: K-562 leukemia
[21] = system: KM12 colon
[22] = system: LOX IMVI melanoma
[23] = system: M14 melanoma
[24] = system: MALME-3M melanoma
[25] = system: MCF7 breast
[26] = system: MDA-MB-231 breast
[27] = system: MDA-MB-435
[28] = system: MDA-N
[29] = system: MOLT-4 leukemia
[30] = system: NCI-H226 lung
[31] = system: NCI-H23 lung
[32] = system: NCI-H460 lung
[33] = system: NCI/ADR-RES ovarian
[34] = system: OVCAR-3 ovarian
[35] = system: OVCAR-4 ovarian
[36] = system: OVCAR-5 ovarian
[37] = system: OVCAR-8 ovarian
[38] = system: PC-3 prostate
[39] = system: SF-295 CNS
[40] = system: SF-539 CNS
[41] = system: SK-MEL-2 melanoma
[42] = system: SK-MEL-28 melanoma
[43] = system: SK-MEL-5 melanoma
[44] = system: SK-OV-3 ovarian
[45] = system: SN12C renal
[46] = system: SNB-19 CNS
[47] = system: SNB-75 CNS
[48] = system: SR leukemia
[49] = system: SW-620 colon
[50] = system: T-47D breast
[51] = system: TK-10 renal
[52] = system: U251 CNS
[53] = system: UACC-257 melanoma
[54] = system: UACC-62 melanoma
[55] = system: UO-31 renal
[56] = system: NCI-H522 lung
[57] = system: SF-268 CNS

Cc1ccc(Cc2n[nH]c(=O)[nH]2)cc1
TGI [1]: > 100 µM
TGI [2]: > 100 µM
TGI [3]: > 100 µM
TGI [4]: > 100 µM
TGI [5]: > 100 µM
TGI [6]: > 100 µM
TGI [7]: > 100 µM
TGI [8]: > 100 µM
TGI [9]: > 100 µM
TGI [10]: > 100 µM
TGI [11]: > 100 µM
TGI [12]: > 100 µM
TGI [13]: > 100 µM
TGI [14]: > 100 µM
TGI [15]: > 100 µM
TGI [16]: > 100 µM
TGI [17]: > 100 µM
TGI [18]: > 100 µM
TGI [19]: > 100 µM
TGI [20]: > 100 µM
TGI [21]: > 100 µM
TGI [22]: > 100 µM
TGI [23]: > 100 µM
TGI [24]: > 100 µM
TGI [25]: > 100 µM
TGI [26]: > 100 µM
TGI [27]: > 100 µM
TGI [28]: > 100 µM
TGI [29]: > 100 µM
TGI [30]: > 100 µM
TGI [31]: > 100 µM
TGI [32]: > 100 µM
TGI [33]: > 100 µM
TGI [34]: > 100 µM
TGI [35]: > 100 µM
TGI [36]: > 100 µM
TGI [37]: > 100 µM
TGI [38]: > 100 µM
TGI [39]: > 100 µM
TGI [40]: > 100 µM
TGI [41]: > 100 µM
TGI [42]: > 100 µM
TGI [43]: > 100 µM
TGI [44]: > 100 µM
TGI [45]: > 100 µM
TGI [46]: > 100 µM
TGI [47]: > 100 µM
TGI [48]: > 100 µM
TGI [49]: > 100 µM
TGI [50]: > 100 µM
TGI [51]: > 100 µM
TGI [52]: > 100 µM
TGI [53]: > 100 µM
TGI [54]: > 100 µM
TGI [55]: > 100 µM

NC1c2c(Br)sc(N3CCCC3)c2C(=O)C1O (centres undefined)
TGI [1]: > 50 µM
TGI [2]: > 50 µM
TGI [3]: > 50 µM
TGI [4]: > 50 µM
TGI [5]: > 50 µM
TGI [6]: > 50 µM
TGI [7]: > 50 µM
TGI [8]: > 50 µM
TGI [9]: > 50 µM
TGI [10]: > 50 µM
TGI [11]: > 50 µM
TGI [12]: > 50 µM
TGI [13]: > 50 µM
TGI [14]: > 50 µM
TGI [16]: > 50 µM
TGI [17]: > 50 µM
TGI [18]: > 50 µM
TGI [19]: > 50 µM
TGI [20]: > 50 µM
TGI [21]: > 50 µM
TGI [22]: > 50 µM
TGI [23]: > 50 µM
TGI [24]: > 50 µM
TGI [25]: > 50 µM
TGI [26]: > 50 µM
TGI [27]: > 50 µM
TGI [28]: > 50 µM
TGI [29]: > 50 µM
TGI [30]: > 50 µM
TGI [31]: > 50 µM
TGI [32]: > 50 µM
TGI [56]: > 50 µM
TGI [33]: > 50 µM
TGI [34]: > 50 µM
TGI [35]: > 50 µM
TGI [36]: > 50 µM
TGI [37]: > 50 µM
TGI [38]: > 50 µM
TGI [57]: > 50 µM
TGI [39]: > 50 µM
TGI [40]: > 50 µM
TGI [41]: > 50 µM
TGI [43]: > 50 µM
TGI [44]: > 50 µM
TGI [45]: > 50 µM
TGI [46]: > 50 µM
TGI [47]: > 50 µM
TGI [49]: > 50 µM
TGI [50]: > 50 µM
TGI [51]: > 50 µM
TGI [52]: > 50 µM
TGI [53]: > 50 µM
TGI [54]: > 50 µM
TGI [55]: > 50 µM
